# Measured values: the supplement of paper PMC10307832
# Tests used:
# Test in all cases: relative viability (nuclei count vs DMSO), 5 days (fraction); higher = more cells survive
# [1] = compound: O=C(C[C@H]1NCCC[C@@H]1O)Cn1cnc2cc(Br)c(Cl)cc2c1=O (racemic) [Halofuginone] + Cc1cc(Nc2cc(N3CCN(C)CC3)nc(Sc3ccc(NC(=O)C4CC4)cc3)n2)n[nH]1 [Tozasertib] (partner 0.1 µM)
# Summary of the method: (§1)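 Lung cancer cell lines in 1536-well plates got either a single drug or a fixed anchor-drug dose together with five library-drug doses (not always all listed) in √10 steps, by pin tool, on the day after seeding. Nuclei were counted after 5 days, and relative viability is the treated-to-vehicle ratio of nuclei counts. Values are medians of duplicate plates.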
# [2] = compound: O=C(C[C@H]1NCCC[C@@H]1O)Cn1cnc2cc(Br)c(Cl)cc2c1=O (racemic) [Halofuginone] + Cc1nc(NC(=O)N2CCC[C@H]2C(N)=O)sc1-c1ccnc(C(C)(C)C(F)(F)F)c1 [Alpelisib] (partner 2 µM)
# Summary of the method: as §1
# [3] = compound: O=C(C[C@H]1NCCC[C@@H]1O)Cn1cnc2cc(Br)c(Cl)cc2c1=O (racemic) [Halofuginone] + CC(=O)c1c(C)c2cnc(Nc3ccc(N4CCNCC4)cn3)nc2n(C2CCCC2)c1=O [Palbociclib] (partner 0.5 µM)
# Summary of the method: as §1
# [4] = compound: COc1cc2c(Oc3ccc4[nH]c(C)cc4c3F)ncnc2cc1OCCCN1CCCC1 [Cediranib] + O=C(CCCCCCC(=O)Nc1ccccc1)NO [Vorinostat] (partner 1 µM)
# Summary of the method: as §1
Cell Line,relative viability ([1]; first compound 0.001 µM),relative viability ([1]; first compound 0.003162 µM),relative viability ([1]; first compound 0.01 µM),relative viability ([1]; first compound 0.03162 µM),relative viability ([1]; first compound 0.1 µM),relative viability ([2]; first compound 0.001 µM),relative viability ([2]; first compound 0.003162 µM),relative viability ([2]; first compound 0.01 µM),relative viability ([2]; first compound 0.03162 µM),relative viability ([2]; first compound 0.1 µM),relative viability ([3]; first compound 0.001 µM),relative viability ([3]; first compound 0.003162 µM),relative viability ([3]; first compound 0.01 µM),relative viability ([3]; first compound 0.03162 µM),relative viability ([3]; first compound 0.1 µM),relative viability ([4]; first compound 0.04 µM),relative viability ([4]; first compound 0.4 µM),relative viability ([4]; first compound 1.265 µM),relative viability ([4]; first compound 4 µM),relative viability ([4]; first compound 0.1265 µM)
LXF-289,0.196,0.199,0.245,0.173,0.178,1.04,1.08,1.01,0.994,0.852,0.553,0.608,0.577,0.603,0.581,0.754,0.724,0.812,0.787,–
NCI-H23,0.387,0.399,0.383,0.387,0.265,0.548,0.725,0.643,0.814,0.224,0.694,0.501,0.479,0.562,0.331,0.545,0.532,0.587,0.789,0.487
NCI-H322M,0.461,0.468,0.462,0.467,0.258,0.516,0.879,0.777,0.802,0.768,0.549,0.475,0.45,0.465,0.357,0.876,0.818,0.983,0.871,1.05
NCI-H358,0.107,0.0894,0.095,0.0812,0.0809,0.898,0.818,0.711,0.305,0.164,0.142,0.127,0.141,0.129,0.0899,0.689,0.638,0.705,0.648,1.05
NCI-H441,0.737,0.792,0.568,0.57,0.256,0.602,0.605,0.623,0.664,0.262,0.254,0.241,0.206,0.241,0.152,0.864,0.767,0.824,0.909,0.825
NCI-H460,0.611,0.572,0.438,0.444,0.19,0.62,0.495,0.464,0.214,0.0177,0.233,0.237,0.207,0.182,0.0284,0.795,0.661,0.678,0.822,0.792
NCI-H520,0.457,0.457,0.461,0.467,0.322,0.792,0.767,0.911,0.761,0.295,0.191,0.222,0.208,0.232,0.2,0.792,0.581,0.576,0.676,0.622
NCI-H647,0.441,0.324,0.267,0.171,0.0868,1.24,1.17,1.1,0.781,0.102,0.413,0.399,0.422,0.287,0.105,0.689,0.56,0.509,0.684,0.594
NCI-H650,0.912,0.772,0.709,0.67,0.426,1.23,1.35,1.16,1.08,0.675,0.362,0.337,0.302,0.294,0.305,0.363,0.526,0.356,0.454,0.319
NCI-H661,0.365,0.35,0.322,0.33,0.391,0.687,0.65,0.53,0.817,0.68,0.422,0.405,0.37,0.373,0.312,0.905,0.763,0.773,0.911,0.796
NCI-H727,0.706,0.778,0.578,0.615,0.33,0.623,0.437,0.478,0.456,0.221,0.715,0.582,0.677,0.703,0.575,0.934,1.08,1.21,1.27,0.913
NCI-H838,0.257,0.315,0.256,0.214,0.212,1.05,0.961,1.05,0.566,0.111,0.234,0.25,0.199,0.171,0.0921,0.703,0.678,0.763,0.838,0.712
NCI-H1355,0.667,0.533,0.538,0.527,0.488,0.811,0.781,0.894,0.79,0.743,0.414,0.435,0.368,0.413,0.38,0.688,0.572,0.544,0.616,0.684
NCI-H1395,0.893,0.72,0.797,0.769,0.656,1.06,1.03,1.01,0.866,0.608,0.645,0.589,0.542,0.553,0.458,0.686,0.601,0.645,0.711,0.689
NCI-H1437,0.407,0.387,0.425,0.393,0.399,0.996,0.957,0.979,0.673,0.294,0.334,0.3,0.296,0.33,0.286,0.875,0.872,0.819,0.898,0.778
NCI-H1651,1.03,0.773,0.702,0.471,0.352,0.906,0.9,0.889,0.66,0.278,0.523,0.515,0.51,0.513,0.509,0.518,0.58,0.53,0.555,0.591
